In article PMC5123075, “Structural and antitrypanosomal data of different carbasones of piperitone” (Data in Brief, 2016):

Experiments:
[1] = test system: Artemia salina (Leach) larvae; experiment: toxicity test against Artemia salina Leach larvae (Sleet and Brendel); assay type: in vivo; settings: larvae
Description: (§1) The Antitrypanosomal activity, toxicity test, and cytotoxicity assay were done according to Räz et al., Sleet and Brendel and Stevigny et al., respectively.

[2] = as above; assay type: in vivo; settings: Artemia salina Leach (larvae), in vivo; concentration providing 50% death of larvae; mean±SD of three experiments
Description: as §1

[3] = test system: Chinese Hamster Ovary (CHO) cells; experiment: cytotoxicity assay on CHO cells (Stevigny et al.); assay type: cell-based; settings: CHO cells
Description: as §1

[4] = cytotoxicity assay on CHO cells (Stevigny et al.); assay type: cell-based, Chinese Hamster; settings: Chinese Hamster Ovary (CHO) cells; Chinese Hamster Ovary cells; mean±SD of three experiments
Description: as §1

[5] = test system: Trypanosoma brucei brucei (Tbb); experiment: in vitro antitrypanosomal activity (Alamar Blue method of Räz et al.); assay type: cell-based; settings: for Selectivity index CHO/tbb: IC50 (CHO) / IC50 (Tbb); for Selectivity index WI38/tbb: IC50 (WI38) / IC50 (Tbb); for Selectivity index LC50/tbb: LC50 (A. salina) / IC50 (Tbb); for Antitrypanosomal activity, activity (verbal grade): Tbb; for Antitrypanosomal activity, activity (verbal grade) / IC50: in vitro; for IC50: Trypanosoma brucei, concentration providing 50% death of parasites, mean±SD of three experiments
Description: as §1

[6] = test system: human non cancer fibroblast cell line (WI38); experiment: cytotoxicity assay on WI38 cells (Stevigny et al.); assay type: cell-based; settings: for Selectivity index WI38/CHO: IC50 (WI38) / IC50 (CHO), selectivity between the two tested cell lines; for Cytotoxicity WI38, Activity (verbal grade): WI38 cells
Description: as §1

[7] = cytotoxicity assay on WI38 cells (Stevigny et al.); assay type: cell-based, human; settings: WI38 non-cancer fibroblast cells; human normal fibroblast cells; mean±SD of three experiments
Description: as §1

Row | Compound | Toxicity against A. salina Leach, Activity (verbal grade) [1] | LC50 [2] | Cytotoxicity CHO, Activity (verbal grade) [3] | IC50 [4] | Selectivity index CHO/tbb [5] | Selectivity index WI38/tbb [5] | Selectivity index LC50/tbb [5] | Antitrypanosomal activity, activity (verbal grade) [5] | IC50 [5] | Selectivity index WI38/CHO [6] | Cytotoxicity WI38, Activity (verbal grade) [6] | IC50 [7]
1 | CC1=C/C(=N\NC(N)=O)C(C(C)C)CC1 (stereo not drawn) [compound 1, piperitone semicarbazone] | Not toxic | 373 ± 6.6 µM | Not toxic | 214 ± 7.56 µM | 0.45 | 1.01 | 0.78 | low | 478 ± 7.19 µM | 2.25 | Not cytotoxic | 481 ± 6.69 µM
2 | CC1=C/C(=N\NC(N)=S)C(C(C)C)CC1 (stereo not drawn) [compound 2, piperitone thiosemicarbazone] | Not toxic | 86.7 ± 2.33 µM | Cytotoxic | 21.2 ± 1.37 µM | 0.28 | 1.92 | 1.16 | moderate | 74.6 ± 4.44 µM | 6.78 | Not cytotoxic | 143 ± 4.89 µM
3 | CC1=C/C(=N\NC(=O)Nc2ccccc2)C(C(C)C)CC1 (stereo not drawn) [compound 3, piperitone 4-phenyl semicarbazone] | Not toxic | 85.5 ± 2.28 µM | Moderate | 65.9 ± 4.8 µM |  |  |  | trypanocidal | 8.63 ± 0.81 µM | 1.23 | Not cytotoxic | 81 ± 9.15 µM
4 | CC1=C/C(=N\NC(=S)Nc2ccccc2)C(C(C)C)CC1 (stereo not drawn) [compound 4, piperitone 4-phenyl thiosemicarbazone] | Toxic | 32.2 ± 1.66 µM | Moderate | 65.3 ± 4.02 µM | 6.00 | 12.30 | 2.96 | trypanocidal | 10.9 ± 2.52 µM | 2.05 | Not cytotoxic | 134 ± 5.45 µM
